From patent publication US20070123514A1, “Methods of modulating neurotrophin-mediated activity” (PainCeptor Pharma Corporation, priority 2005, published 2007)

What was measured:
PC12 (TrkA & p75) = experiment: 125I-NGF binding displacement in PC12 cells; parameters: species or system rat; details: for blocking of NGF binding (dose-response curve): PC12 cells expressing TrkA and p75, result in words; for PC12 (TrkA & p75) Single point (% max binding) Mean: PC12 cells
Method: The method for acquiring the PC12 data described in Table 1 is described herein in Example 1. Each experiment was done at least once with an n value of 4 for each data point. (n/a=not acquired)
(§1) All cells were incubated at 37° C. in 5% CO2. PC12 cells were maintained in RPMI-1640 medium supplemented with 10% fetal bovine serum (FBS). A875 human melanoma cells were maintained in DMEM with 10% FBS. HEK 293 cells were stably transfected with human TrkA plasmid (see below) and maintained in DMEM with 10% FBS and G418 (600 μg/mL) for selection.
NGF binding was evaluated using methods familiar to those who are skilled in the art. Briefly, cells expressing one or both NGF receptors (PC12: TrkA+p75; A875: p75 alone; HEK_trkA: TrkA alone) were harvested by replacing the medium with calcium-magnesium free balanced salt (Grey's) solution and incubating at 37° C. for 15 min. For NGF binding, cells were resuspended at a concentration of 2×10^6 cells/mL in HEPES-Krebs-Ringer (HKR) buffer (10 mM HEPES; 125 mM NaCl; 4.8 mM KCl; 1.3 mM CaCl2; 1.2 mM MgSO4; 1.2 mM KH2PO4; 1 mg/ml BSA; 1 mg/ml glucose; pH 7.4) and exposed to ^125I-NGF (˜0.1 nM) in the presence or absence of varying concentrations of the compound. Non-specific binding was determined for reference by incubating ^125I-NGF with an excess of non-radioactive NGF in the abence of compound. Following a two-hour incubation period at 4° C., ^125I-NGF bound to the cells was quantified in a gamma radiation counter following separation from unbound NGF by filtration or centrifugation through glycerol (10% in HKR). Inhibition of binding was calculated as a percent of the specific binding (calculated as the differential between ^125I-NGF binding in the absence and presence of an excess of non-radioactive NGF without compound). Dose-response inhibition curves were typically generated with seven concentrations of a given compound, with three replicates for each concentration. For most compounds, multiple dose-response curves were generated.
The IC50 data shown in Table 1 were acquired using the procedure described herein using PC12 cells.

[1] = system: human TrkA (HEK_trkA: TrkA alone); experiment: 125I-NGF binding displacement in HEK_trkA cells; details: result in words
Method: as §1
Expression of human TrkA in HEK cells was achieved by transfecting the cells with the TrkA expression vector using Lipofectamine (Invitrogen) reagent. HEK cells were plated in 100 mm Petri dishes at a concentration of 10^6 cells per dish. The next day, a solution of DNA diluted in 1 mL OptiMEM (Invitrogen) per dish was prepared and incubated for 15 min at room temperature. […]
NGF binding was evaluated using methods familiar to those who are skilled in the art. […] Non-specific binding was determined for reference by incubating ^125I-NGF with an excess of non-radioactive NGF in the abence of compound. Following a two-hour incubation period at 4° C., ^125I-NGF bound to the cells was quantified in a gamma radiation counter following separation from unbound NGF by filtration or centrifugation through glycerol (10% in HKR). Inhibition of binding was calculated as a percent of the specific binding (calculated as the differential between ^125I-NGF binding in the absence and presence of an excess of non-radioactive NGF without compound). […]

Structure (SMILES): O=C(O)c1ccc(Cl)c(N2C(=O)c3cc([N+](=O)[O-])cc4cc([N+](=O)[O-])cc(c34)C2=O)c1 [Compound 7, 4-Chloro-3-(5,8-dinitro-1,3-dioxo-1H,3H-benzol[de]isoquinolin-2-yl)-benzoic acid]
- blocking of NGF binding (dose-response curve) (PC12 (TrkA & p75)): effectively blocks NGF binding

Structure (SMILES): O=C(O)c1cc(Cl)cc(N2C(=O)c3cccc4cc([N+](=O)[O-])cc(c34)C2=O)c1Cl [Compound 51, 2,5-Dichloro-3-(5-nitro-1,3-dioxo-1H,3H-benzo[de]isoquinolin-2-yl)-benzoic acid]
- PC12 (TrkA & p75) Single point (% max binding) Mean (PC12 (TrkA & p75); compound concentration 50 μM): * (* > 50)

Structure (SMILES): O=C(O)c1ccc(Cl)c(N2C(=O)c3cc(Br)cc4cc([N+](=O)[O-])cc(c34)C2=O)c1 [Compound 53, 3-(5-Bromo-8-nitro-1,3-dioxo-1H,3H-benzo[de]isoquinolin-2-yl)-4-chloro-benzoic acid]
- PC12 (TrkA & p75) Single point (% max binding) Mean (PC12 (TrkA & p75); compound concentration 50 μM): * (* > 50)

Structure (SMILES): Nc1cc2c3c(cc(Br)cc3c1)C(=O)N(c1cc(C(=O)O)ccc1Cl)C2=O [Compound 56, 3-(5-Amino-8-bromo-1,3-dioxo-1H,3H-benzo[de]isoquinolin-2-yl)-4-chloro-benzoic acid]
- PC12 (TrkA & p75) Single point (% max binding) Mean (PC12 (TrkA & p75); compound concentration 50 μM): * (* > 50)

Structure (SMILES): CC(=O)Nc1cc2c3c(cc(Br)cc3c1)C(=O)N(c1cc(C(=O)O)ccc1Cl)C2=O [Compound 57, 3-(5-Acetylamino-8-bromo-1,3-dioxo-1H,3H-benzo[de]isoquinolin-2-yl)-4-chloro-benzoic acid]
- PC12 (TrkA & p75) Single point (% max binding) Mean (PC12 (TrkA & p75); compound concentration 50 μM): ** (30 > ** > 50)

Structure (SMILES): O=C1c2cccc3cc([N+](=O)[O-])cc(c23)C(=O)N1c1ccc(S(=O)(=O)O)cc1 [Compound 71, 4-(5-Nitro-1,3-dioxo-1H,3H-benzo[de]isoquinolin-2-yl)-benzenesulfonic acid]
- blocking of NGF binding (dose-response curve) (PC12 (TrkA & p75)): effectively block NGF binding

Structure (SMILES): CC(=O)Nc1cc2c3c(cc(NC(C)=O)cc3c1)C(=O)N(c1cccc(C(=O)O)c1)C2=O [Compound 94, 3-(5,8-Bis-acetylamino-1,3-dioxo-1H,3H-benzo[de]isoquinolin-2-yl)-benzoic acid]
- blocking of NGF binding (dose-response curve) (PC12 (TrkA & p75)): effectively blocks NGF binding
- blocking of NGF binding to TrkA (dose-response curve) [1]: effectively blocks NGF binding to TrkA

Structure (SMILES): O=C(O)c1ccc(Cl)c(N2C(=O)c3cccc4c(C(=O)c5ccccc5)ccc(c34)C2=O)c1 [Compound 98, 3-(6-Benzoyl-1,3-dioxo-1H,3H-benzo[de]isoquinolin-2-yl)-4-chloro-benzoic acid]
- PC12 (TrkA & p75) Single point (% max binding) Mean (PC12 (TrkA & p75); compound concentration 25 μM): *** (0 > *** > 30)

Structure (SMILES): O=C(O)c1ccc(Cl)c(N2C(=O)c3cccc4c(C(=O)O)ccc(c34)C2=O)c1 [Compound 99, 2-(5-Carboxy-2-chloro-phenyl)-1,3-dioxo-2,3-dihydro-1H-benzo[de]isoquinoline-6-carboxylic acid]
- PC12 (TrkA & p75) Single point (% max binding) Mean (PC12 (TrkA & p75); compound concentration 25 μM): * (* > 50)

Structure (SMILES): CCOC(=O)c1cccc(N2C(=O)c3cccc4cccc2c34)c1 [Compound 105, 3-(2-Oxo-2H-benzo[cd]indol-1-yl)-benzoic acid ethyl ester]
- PC12 (TrkA & p75) Single point (% max binding) Mean (PC12 (TrkA & p75); compound concentration 25 μM): * (* > 50)

Structure (SMILES): CCOC(=O)c1cccc(N2C(=O)c3cccc4c([N+](=O)[O-])ccc2c34)c1 [Compound 106, 3-(6-Nitro-2-oxo-2H-benzo[cd]indol-1-yl)-benzoic acid ethyl ester]
- PC12 (TrkA & p75) Single point (% max binding) Mean (PC12 (TrkA & p75); compound concentration 25 μM): * (* > 50)

Structure (SMILES): O=C(O)c1cccc(N2C(=O)c3cccc4cccc2c34)c1 [Compound 107, 3-(2-Oxo-2H-benzo[cd]indol-1-yl)-benzoic acid]
- PC12 (TrkA & p75) Single point (% max binding) Mean (PC12 (TrkA & p75); compound concentration 25 μM): ** (30 > ** > 50)

Structure (SMILES): CCOC(=O)c1cc(N2C(=O)c3cccc4c([N+](=O)[O-])ccc2c34)ccc1Cl [Compound 108, 2-Chloro-5-(6-nitro-2-oxo-2H-benzo[cd]indol-1-yl)-benzoic acid ethyl ester]
- PC12 (TrkA & p75) Single point (% max binding) Mean (PC12 (TrkA & p75); compound concentration 25 μM): * (* > 50)

Structure (SMILES): CC(=O)Nc1ccc(C(=O)O)cc1N1C(=O)c2cccc3cc([N+](=O)[O-])cc(c23)C1=O [Compound 110, 4-Acetylamino-3-(5-nitro-1,3-dioxo-1H,3H-benzo[de]isoquinolin-2-yl)-benzoic acid]
- PC12 (TrkA & p75) Single point (% max binding) Mean (PC12 (TrkA & p75); compound concentration 25 μM): ** (30 > ** > 50)

Structure (SMILES): O=C(O)c1ccc(Cl)c(N2C(=O)c3cccc4c(Cl)ccc(c34)C2=O)c1 [Compound 111, 4-Chloro-3-(6-chioro-1,3-dioxo-1H,3H-benzo[de]isoquinolin-2-yl)-benzoic acid]
- PC12 (TrkA & p75) Single point (% max binding) Mean (PC12 (TrkA & p75); compound concentration 25 μM): ** (30 > ** > 50)

Structure (SMILES): Nc1cc2c3c(cc(N)cc3c1)C(=O)N(c1ccc(S(=O)(=O)O)cc1)C2=O [Compound 118, 4-(5,8-Diamino-1,3-dioxo-1H,3H-benzo[de]isoquinolin-2-yl)-benzenesulfonic acid]
- PC12 (TrkA & p75) Single point (% max binding) Mean (PC12 (TrkA & p75); compound concentration 50 μM): ** (30 > ** > 50)

Structure (SMILES): CC(=O)Nc1cc2c3c(cc(NC(C)=O)cc3c1)C(=O)N(c1ccc(S(=O)(=O)O)cc1)C2=O [Compound 119, 4-(5,8-Bis-acetylamino-1,3-dioxo-1H,3H-benzol[de]isoquinolin-2-yl)-benzenesulfonic acid]
- PC12 (TrkA & p75) Single point (% max binding) Mean (PC12 (TrkA & p75); concentration cell printed as '═'): ** (30 > ** > 50)
